≈ marks a conversion by molar mass, not a printed value. Like-named read-outs stand apart in the source and are kept apart here.
Experiments:
[1] = tested on: Bordetella bronchiseptica (9.73H+); assay: MIC/MBC antibiotic sensitivity (CLSI); assay type: cell-based; conditions: B. bronchiseptica (9.73H+); for MBC: read-out: MBC; for MIC: read-out: MIC
In short: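 Antibacterial activity is measured as MIC and MBC under CLSI criteria. Tobramycin, ceftazidime and meropenem serve as comparator antibiotics.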

[2] = tested on: Burkholderia cenocepacia (HE001); assay: MIC/MBC antibiotic sensitivity (CLSI); assay type: cell-based
In short: (§1)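 Two quantitative methods following CLSI criteria gave minimum inhibitory concentration (MIC) and minimum bactericidal concentration (MBC). Burkholderia isolates came from sputum of cystic fibrosis patients and were chosen for high resistance to clinically used antimicrobials; S. aureus is a Gram-positive reference strain.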

[3] = tested on: Burkholderia cepacia (CBC 011); assay: MIC/MBC antibiotic sensitivity (CLSI); assay type: cell-based
In short: as §1

[4] = tested on: Burkholderia multivorans (CBC 016); assay: MIC/MBC antibiotic sensitivity (CLSI); assay type: cell-based; conditions: for MBC: read-out: MBC
In short: as §1

[5] = tested on: Burkholderia multivorans (CBC 021); assay: MIC/MBC antibiotic sensitivity (CLSI); assay type: cell-based
In short: as §1

[6] = Cytotoxicity assay, Trypan blue vital staining; assay type: cell-based, human; conditions: human, THP-I monocyte cells; THP-I cells, Trypan Blue; highest drug concentration at which 50% of cells are viable compared with control
Experimental: (§2) For example, the MIC values for E. coli of the guanidine derivatives disclosed in patent application WO 2004073709 A1 are higher than 1 μg/ml. The guanidine derivatives disclosed by Hensler and colleagues (Hensler, M. E.; Bernstein, G.; Nizet, V.; Nefzi, A., Bioorganic & Medicinal Chemistry Letters 2006, 16, 5073-5079) have MIC values higher than 2.5 μg/ml against E. coli. […] In vitro cytotoxicity assays were performed using the human monocyte cell line THP-I and vital staining with Trypan Blue (3). The IC50 value was defined as the higher drug concentration at which 50% of cells are viable compared with the control. […] The Selectivity Index (SI), defined as the ratio between the IC50 and the MIC for each compound, was calculated. Compound H-BDF has an SI>10, which makes it a good antimicrobial candidate according to the criteria set up by Orme (5).
(§3) For assaying the cytotoxicity of the compounds obtained in Examples 1 and 2, cell viability by vital coloration exclusion with Trypan blue (3). The studies were performed using the monocyte cell line THP-I. The IC50 value was defined as the highest drug concentration at which 50% of the cells are viable as compared with the control.

[7] = tested on: human monocyte cell line THP-I; assay: Cytotoxicity assay, Trypan blue vital staining; assay type: cell-based; conditions: ratio IC50 / MIC, strain not stated
Experimental: as §2, §3

[8] = tested on: Burkholderia seminalis (CBC 040); conditions: reference (1); cited from earlier work
[9] = Burkholderia cenocepacia (HE001)
[10] = Burkholderia cenocepacia (HE001), read-out: MIC
[11] = Burkholderia cepacia (CBC 011), read-out: MIC
[12] = Burkholderia multivorans (CBC 016)
[13] = Burkholderia multivorans (CBC 016), read-out: MIC
[14] = Burkholderia multivorans (CBC 021)
[15] = Burkholderia multivorans (CBC 021), read-out: MIC

MIC [1] [µg/mL] | MIC [2, 10] [µg/mL] | MIC [3, 11] [µg/mL] | MIC [4, 13] [µg/mL] | MIC [5, 15] [µg/mL] | melting point [°C] | SMILES | MBC [1] [µg/mL] | MBC [2, 9] [µg/mL] | MBC ([3]; Burkholderia cepacia (CBC 011)) [µg/mL] | MBC [4, 12] [µg/mL] | MBC [5, 14] [µg/mL] | IC50 [6] [µg/mL] | other results
0.48 (≈ 0.796 µM) | 3.9 (≈ 6.46 µM) | 1.95 (≈ 3.23 µM) | 1.95 (≈ 3.23 µM) | 1.95 (≈ 3.23 µM) | 174 | O=C(NC(=Nc1c(F)cc(F)cc1Br)Nc1c(F)cc(F)cc1Br)C12CC3CC(CC(C3)C1)C2 [H-BDF, N—(N,N′-bis(2-bromo-4,6-difluorophenyl)carbamimidoyl)adamantane-1-carboxamide] | 1.95 (≈ 3.23 µM) | 61.2 (≈ 102 µM) | 30.2 (≈ 50 µM) | 7.81 (≈ 12.9 µM) | 3.9 (≈ 6.46 µM) | 15.2 (≈ 25.3 µM) | Selectivity Index (SI) [7]: > 10
16.6 (≈ 25 µM) | 61.2 (≈ 92.2 µM) | 66.4 (≈ 100 µM) | 66.4 (≈ 100 µM) | 66.4 (≈ 100 µM) | 144 | O=C(NC(=Nc1c(Br)cc(F)cc1Br)Nc1c(F)cc(F)cc1Br)C12CC3CC(CC(C3)C1)C2 [H-DBF, N—(N-(2-bromo-4,6-difluorophenyl)-N′-(2,6-dibromo-4-fluorophenyl)carbamimidoyl) adamantane-1-carboxamide] | 66.5 (≈ 100 µM) | > 61.2 | > 132 | > 132 | > 132 | > 132 | –
< 0.48 | – | – | – | – | – | C[C@@H](O)[C@H]1C(=O)N2C(C(=O)O)=C(S[C@@H]3CN[C@H](C(=O)N(C)C)C3)[C@H](C)[C@H]12 [Meropenem, meropenem] | < 0.48 | – | > 62.5 | – | 7.81 (≈ 20.4 µM) | – | MIC ([2]; Burkholderia cenocepacia, Meropenem, CLSI criteria, B. cenocepacia (HE001), read-out: MIC (R/I/S category)): > 16 µg/mL; MIC ([3]; Burkholderia cepacia, Meropenem, CLSI criteria, B. cepacia (CBC 011), read-out: MIC (R/I/S category)): < 4 µg/mL; MIC ([4]; Burkholderia multivorans, Meropenem, CLSI criteria, B. multivorans (CBC 016), read-out: MIC (R/I/S category)): > 16 µg/mL; MIC ([5]; Burkholderia multivorans, Meropenem, CLSI criteria, B. multivorans (CBC 021), read-out: MIC (R/I/S category)): < 4 µg/mL; resistance of the strain to commercial antibiotics [8]: resistant
62.5 (≈ 134 µM) | – | – | – | – | – | NC[C@H]1O[C@H](O[C@H]2[C@H](O)[C@@H](O[C@H]3O[C@H](CO)[C@@H](O)[C@H](N)[C@H]3O)[C@H](N)C[C@@H]2N)[C@H](N)C[C@@H]1O [Tobramucin, tobramycin] | 62.5 (≈ 134 µM) | – | – | – | – | – | MIC ([2]; Burkholderia cenocepacia, Tobramucin, CLSI criteria, B. cenocepacia (HE001), read-out: MIC (R/I/S category)): > 16 µg/mL; MIC ([3]; Burkholderia cepacia, Tobramucin, CLSI criteria, B. cepacia (CBC 011), read-out: MIC (R/I/S category)): > 16 µg/mL; MIC ([4]; Burkholderia multivorans, Tobramucin, CLSI criteria, B. multivorans (CBC 016), read-out: MIC (R/I/S category)): > 16 µg/mL; MIC ([5]; Burkholderia multivorans, Tobramucin, CLSI criteria, B. multivorans (CBC 021), read-out: MIC (R/I/S category)): > 16 µg/mL

Source: patent US10857110B2, “Antibacterial compounds” (CONSEJO NACIONAL DE INVESTIGACIONES CIENTÍFICAS Y TÉCNICAS …, priority 2016, dated 2020)
